Results on 35 compounds are retold here after ChEMBL document CHEMBL1201862, “PubChem BioAssay data set” (2004).

Some targets named below: Cytochrome P450 2C9 (Homo sapiens, UniProt P11712); Cytochrome P450 2D6 (Homo sapiens, UniProt P10635); Cytochrome P450 3A4 (Homo sapiens, UniProt P08684).
The target of a further assay is T1, Protein skinhead-1 (Caenorhabditis elegans, UniProt P34707).
T1 sequence (P34707 whole entry): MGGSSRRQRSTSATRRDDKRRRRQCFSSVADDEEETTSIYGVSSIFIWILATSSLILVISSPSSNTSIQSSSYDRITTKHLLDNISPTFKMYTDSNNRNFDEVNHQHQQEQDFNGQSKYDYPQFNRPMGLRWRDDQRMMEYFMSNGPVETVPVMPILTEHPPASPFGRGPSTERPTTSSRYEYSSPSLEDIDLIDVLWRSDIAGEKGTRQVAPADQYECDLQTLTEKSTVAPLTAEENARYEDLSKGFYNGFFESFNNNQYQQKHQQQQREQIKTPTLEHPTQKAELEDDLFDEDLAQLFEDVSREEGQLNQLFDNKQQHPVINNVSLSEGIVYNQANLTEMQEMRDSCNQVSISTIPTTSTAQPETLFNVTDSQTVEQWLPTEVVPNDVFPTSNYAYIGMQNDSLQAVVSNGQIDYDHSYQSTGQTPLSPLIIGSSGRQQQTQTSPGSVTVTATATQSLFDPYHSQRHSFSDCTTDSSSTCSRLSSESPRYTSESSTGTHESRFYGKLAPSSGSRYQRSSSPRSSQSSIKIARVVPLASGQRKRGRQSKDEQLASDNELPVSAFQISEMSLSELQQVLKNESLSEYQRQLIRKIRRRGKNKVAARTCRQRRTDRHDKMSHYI
Format: functional.

For assay [1], the target named is T2, Heat shock factor protein 1 (Mus musculus, UniProt P38532).
T2 sequence (P38532 whole entry): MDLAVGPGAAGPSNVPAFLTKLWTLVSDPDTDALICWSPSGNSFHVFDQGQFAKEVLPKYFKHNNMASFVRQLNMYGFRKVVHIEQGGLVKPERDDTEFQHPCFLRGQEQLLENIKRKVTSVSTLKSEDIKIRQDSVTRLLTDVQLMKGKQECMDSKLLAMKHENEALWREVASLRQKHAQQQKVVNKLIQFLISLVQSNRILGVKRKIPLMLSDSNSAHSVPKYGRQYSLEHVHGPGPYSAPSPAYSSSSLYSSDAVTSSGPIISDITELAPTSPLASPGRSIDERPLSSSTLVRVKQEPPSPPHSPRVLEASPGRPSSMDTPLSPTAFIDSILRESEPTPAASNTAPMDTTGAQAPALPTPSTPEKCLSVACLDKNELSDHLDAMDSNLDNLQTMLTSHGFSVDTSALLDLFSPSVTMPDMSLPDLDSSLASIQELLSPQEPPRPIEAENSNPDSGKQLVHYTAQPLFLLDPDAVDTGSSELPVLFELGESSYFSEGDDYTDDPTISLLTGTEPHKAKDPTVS
The assay can be described thus: enhancement of HSF1-driven luciferase signal – cell-based, NIH3T3, luminescence, dose retest, confirmation (AID 435004).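 Also: stress induced by proteasome inhibitor MG132 added 30 min after compound; luciferase reporter driven by HSF1 response element in NIH3T3 cells; actives raise luminescence as potentiators of the MG132 stress response.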 The class given is functional.

Assay [2] deals with Luciferin 4-monooxygenase (Photinus pyralis, UniProt P08659). The assay can be described thus: inhibition of purified Photinus pyralis luciferase – biochemical, luminescence, dose response (AID 1891).
Assay [3] is described as follows: Luminescence Cell-Based Dose Confirmation HTS to Identify Inhibitors of Platelet Dense Granule Release. [Related pubchem assays: 1663 (Primary HTS), 1678 (Summary of Project)]. Format: functional.
The nature of a further assay: cells. Format: functional.
Assay [4] in a line: Luminescence Cell-Based Dose Retest to Confirm Inhibitors of Cancer Stem Cells. [Related pubchem assays (depositor defined):AID2717, AID2721]. Format: functional. The settings on record: Homo sapiens.
Assay [5] is described as follows: viability of uninfected HEp-2 cells – cell-based, HTS, cytotoxicity control for RSV inhibitor project, dose response (AID 2410). The class given is functional. The following applies: human respiratory syncytial virus.
A further assay concerns H9c2. The assay can be described thus: cells. Format: functional, cell-based. The settings on record: Rattus norvegicus, H9c2, Myocardium.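 Also: confirmatory concentration-response retest of ultra-high-throughput screening hits for modulation of myocardial damage; cell death induced by hydrogen peroxide oxidative stress; compound pretreatment for 60 min then peroxide exposure for 2 h; potency is for protecting the cells against peroxide damage rather than for killing them.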
Assay [6] deals with T3, RNA-binding protein pos-1 (Caenorhabditis elegans, UniProt G5EF15).
T3 sequence (G5EF15 whole entry): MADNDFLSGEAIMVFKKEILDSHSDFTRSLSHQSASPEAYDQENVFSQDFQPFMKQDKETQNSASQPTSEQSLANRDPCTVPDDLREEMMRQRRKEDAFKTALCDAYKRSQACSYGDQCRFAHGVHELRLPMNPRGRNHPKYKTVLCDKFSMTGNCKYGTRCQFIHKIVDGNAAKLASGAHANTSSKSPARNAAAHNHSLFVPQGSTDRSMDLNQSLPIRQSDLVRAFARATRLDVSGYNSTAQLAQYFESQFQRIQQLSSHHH
Nature of the assay: disruptors of C. elegans POS-1 RNA interaction – biochemical, fluorescence polarization, dose response (AID 1964). (Polarisation of emitted light reports the rotation of a fluorescent probe.)

Assay [7] is described as follows: alpha-synuclein stem-loop luciferase translation blockers – H4 neuroglioma cells, luminescence, confirmation (AID 1988). The class given is functional, cell-based.
Assay [8] in a line: luciferase reporter signal suppression in cells – H4 neuroglioma cells, luminescence, dose response (AID 1990). Format: functional, cell-based. (Reporter assays use an easily measured gene product as a stand-in for the process of interest.)
Assay [9] in a line: Luminescence Cell-Based Dose Response HTS to Identify Inhibitors of 5'UTR Stem-Loop Driven Prion Protein mRNA Translation in H4 Neuroglioblastoma Cells. [Related pubchem assays: 1827 (Project Summary), 1813 (Primary HTS)]. Format: functional.
For assay [10], the target named is T4, Corticotropin-releasing factor receptor 2/Corticotropin-releasing factor-binding protein (Homo sapiens, UniProt P24387+Q13324).
T4 sequence (Q13324 whole entry): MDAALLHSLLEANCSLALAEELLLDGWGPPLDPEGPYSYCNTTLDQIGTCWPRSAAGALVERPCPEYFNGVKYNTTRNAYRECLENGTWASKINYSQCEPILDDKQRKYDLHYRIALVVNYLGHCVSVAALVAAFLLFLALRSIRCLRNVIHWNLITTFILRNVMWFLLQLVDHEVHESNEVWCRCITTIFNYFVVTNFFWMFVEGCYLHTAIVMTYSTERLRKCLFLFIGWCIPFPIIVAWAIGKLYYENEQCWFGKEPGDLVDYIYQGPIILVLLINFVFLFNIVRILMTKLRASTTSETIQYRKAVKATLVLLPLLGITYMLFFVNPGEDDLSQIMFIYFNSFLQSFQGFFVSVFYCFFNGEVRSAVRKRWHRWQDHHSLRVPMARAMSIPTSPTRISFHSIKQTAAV
T4 sequence (P24387 whole entry): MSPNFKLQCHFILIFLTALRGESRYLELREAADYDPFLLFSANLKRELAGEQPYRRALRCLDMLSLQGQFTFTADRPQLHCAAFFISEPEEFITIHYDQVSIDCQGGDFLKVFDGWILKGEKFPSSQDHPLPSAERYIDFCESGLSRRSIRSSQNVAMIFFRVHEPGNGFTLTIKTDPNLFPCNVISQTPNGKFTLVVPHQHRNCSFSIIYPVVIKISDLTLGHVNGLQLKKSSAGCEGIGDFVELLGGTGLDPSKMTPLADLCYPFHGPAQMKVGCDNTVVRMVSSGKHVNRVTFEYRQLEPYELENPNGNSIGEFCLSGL
Nature of the assay: activators of CRF receptor 2 with binding protein – uHTS hits, confirmation (AID 602473). Format: functional. The following applies: read-out: EC50_Mean.

Assay [11] concerns the target T4, Corticotropin-releasing factor receptor 2/Corticotropin-releasing factor-binding protein. Nature of the assay: Dose Response confirmation of uHTS hits for small molecule antagonists of the CRF-binding protein and CRF-R2 receptor complex. Format: functional. The settings on record: read-out: IC50_Mean.

What is called AC50 is the concentration giving half of the maximal activity seen. The CC50 is the concentration that lowers cell viability or growth by half.

Active and inactive are the calls of the source.

Chain of Luciferin 4-monooxygenase (P08659 whole entry): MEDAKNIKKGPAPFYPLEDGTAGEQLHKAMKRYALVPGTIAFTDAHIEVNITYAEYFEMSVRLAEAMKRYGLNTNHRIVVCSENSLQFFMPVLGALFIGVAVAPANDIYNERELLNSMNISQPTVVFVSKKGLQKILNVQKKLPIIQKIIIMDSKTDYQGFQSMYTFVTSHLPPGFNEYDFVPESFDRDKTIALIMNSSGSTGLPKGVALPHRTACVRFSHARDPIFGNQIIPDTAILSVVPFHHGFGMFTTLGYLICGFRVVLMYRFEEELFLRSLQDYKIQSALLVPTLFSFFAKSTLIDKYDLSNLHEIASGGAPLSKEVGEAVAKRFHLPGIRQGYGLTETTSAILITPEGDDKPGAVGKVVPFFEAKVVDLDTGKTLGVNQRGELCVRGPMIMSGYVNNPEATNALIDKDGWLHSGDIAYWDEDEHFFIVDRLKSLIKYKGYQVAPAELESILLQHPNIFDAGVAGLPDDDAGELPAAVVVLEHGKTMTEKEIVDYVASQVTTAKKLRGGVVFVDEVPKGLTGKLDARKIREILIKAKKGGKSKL
Chain of Cytochrome P450 2D6 (P10635 whole entry): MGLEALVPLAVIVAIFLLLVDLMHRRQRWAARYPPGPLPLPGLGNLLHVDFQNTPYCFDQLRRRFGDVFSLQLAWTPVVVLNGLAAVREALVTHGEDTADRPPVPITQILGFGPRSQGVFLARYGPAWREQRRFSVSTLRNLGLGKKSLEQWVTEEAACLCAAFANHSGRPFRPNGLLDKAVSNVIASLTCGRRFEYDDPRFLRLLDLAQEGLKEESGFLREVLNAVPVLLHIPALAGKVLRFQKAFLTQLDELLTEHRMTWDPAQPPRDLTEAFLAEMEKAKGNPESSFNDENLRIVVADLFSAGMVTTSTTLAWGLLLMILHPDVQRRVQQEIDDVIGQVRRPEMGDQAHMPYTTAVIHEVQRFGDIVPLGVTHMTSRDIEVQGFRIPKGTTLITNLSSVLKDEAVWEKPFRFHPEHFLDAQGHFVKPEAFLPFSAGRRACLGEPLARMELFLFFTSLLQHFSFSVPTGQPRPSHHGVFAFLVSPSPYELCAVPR
Chain of Cytochrome P450 3A4 (P08684 whole entry): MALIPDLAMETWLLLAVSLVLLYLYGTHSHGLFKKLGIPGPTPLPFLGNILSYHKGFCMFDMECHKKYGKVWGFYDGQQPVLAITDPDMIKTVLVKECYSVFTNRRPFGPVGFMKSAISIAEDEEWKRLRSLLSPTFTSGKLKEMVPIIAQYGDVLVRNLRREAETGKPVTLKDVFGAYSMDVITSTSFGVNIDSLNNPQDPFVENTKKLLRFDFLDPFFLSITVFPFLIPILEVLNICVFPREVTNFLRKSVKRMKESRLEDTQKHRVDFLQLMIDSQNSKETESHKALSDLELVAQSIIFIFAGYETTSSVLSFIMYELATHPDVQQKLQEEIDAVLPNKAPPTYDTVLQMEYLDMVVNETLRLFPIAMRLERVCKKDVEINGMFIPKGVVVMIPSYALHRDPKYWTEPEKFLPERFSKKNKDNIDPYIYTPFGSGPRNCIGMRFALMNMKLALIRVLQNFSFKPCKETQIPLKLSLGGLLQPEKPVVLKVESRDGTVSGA
Chain of Cytochrome P450 2C9 (P11712 whole entry): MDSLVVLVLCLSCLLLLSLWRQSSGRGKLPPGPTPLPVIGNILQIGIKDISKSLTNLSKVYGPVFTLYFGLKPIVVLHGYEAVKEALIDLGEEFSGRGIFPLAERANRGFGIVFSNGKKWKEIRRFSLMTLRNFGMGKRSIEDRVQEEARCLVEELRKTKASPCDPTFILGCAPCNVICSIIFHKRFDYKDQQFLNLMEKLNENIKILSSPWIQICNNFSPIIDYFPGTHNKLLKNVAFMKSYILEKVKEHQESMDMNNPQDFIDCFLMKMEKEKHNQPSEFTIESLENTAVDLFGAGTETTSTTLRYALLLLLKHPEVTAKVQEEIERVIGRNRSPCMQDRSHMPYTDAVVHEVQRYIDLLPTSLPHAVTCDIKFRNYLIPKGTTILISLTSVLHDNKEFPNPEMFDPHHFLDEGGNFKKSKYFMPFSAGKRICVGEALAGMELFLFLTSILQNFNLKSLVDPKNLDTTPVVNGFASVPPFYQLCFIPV

For the compound `O=C1c2cc(Br)ccc2OC2C=CC=CC12` (configuration not stated), on Protein skinhead-1, the IC50 was 81 µM (inactive).

In the case of `CSc1cc(-c2ccco2)oc1C(=O)c1ccco1`, the IC50 at Protein skinhead-1 was > 100 µM (inactive). In [1], the EC50 is > 260 µM (inactive).

Consider `Cc1nc2sccn2c(=O)c1S(=O)(=O)N1CCN(c2ccc(F)cc2)CC1`, for which the EC50 in [2] and in assay [3] was > 112 µM (not active) throughout.

With `N#Cc1nc(-c2cccs2)oc1NCCc1ccccc1`, the IC50 in “cells” was 7.45 µM (active).

For `COc1ccc(NC(=O)c2cc(S(=O)(=O)N3CCc4ccccc43)cn2C)cc1`, the EC50 in assay [2] and in assay [3] was > 112 µM (not active) throughout.

With `CCSc1ncc(/C=N/Nc2ccc(Cl)cc2)n1C`, in “cells”, the IC50 was > 50 µM (active). The concentration at half-maximal activity (AC50) in [4] is 3.3 µM (active).

For `CCCCN(C(=O)C1CC(=O)N(c2ccc(OC)cc2OC)C1)c1c(N)n(CC(C)C)c(=O)[nH]c1=O` (configuration not stated), the EC50 in assay [2] was > 112 µM (not active); in assay [3], 17.5 µM (active).

Regarding `Cc1ccccc1[S+]([O-])Cc1ccc(C(=O)N2CCN(C(=O)c3ccco3)CC2)o1` (configuration not stated), at Protein skinhead-1, the IC50 was > 100 µM (inactive).

As for `Cc1cccc(-n2c(SCc3cc(=O)n4ccsc4n3)nc3ccccc3c2=O)c1`, the cytotoxic concentration (CC50) in assay [5] was 39.5 µM (active). Further, the IC50 in the assay with H9c2 is > 79 µM (inactive).

On to `O=C(COC(=O)c1ccc(Cl)nc1)Nc1ccc2ccccc2c1`, for which the IC50 at Protein skinhead-1 was > 100 µM (inactive).

For `COc1cccc(/C=N/NC(=O)c2ccc(O)nn2)c1O`, the EC50 in [6] is 31.7 µM (active).

Regarding `Cn1c(=O)c2c(nc(NCc3cccnc3)n2Cc2cccc(C(F)(F)F)c2)n(C)c1=O`, in the assay with H9c2, the IC50 is 14 µM (active).

With `O=C(OCc1ccccn1)c1ccc(COc2ccccc2Cl)o1`, the IC50 in the assay “cells” is 35.1 µM (active). The half-maximal activity concentration (AC50) is 39.8 µM (inconclusive) on Cytochrome P450 2C9, 17.8 µM (inconclusive) on Cytochrome P450 2D6 and 31.6 µM (inconclusive) at Cytochrome P450 3A4.

In the case of `O=c1c2ccccc2nc(/C=C/c2ccc(F)cc2)n1-c1ccccn1`, the EC50 in assay [2] and in assay [3] was > 112 µM (not active) in each case.

Take `O=C(NCc1ccncc1)/C(=C/c1cccc([N+](=O)[O-])c1)NC(=O)c1ccccc1`: the EC50 in assay [2] and in assay [3] was > 112 µM (not active) each time.

Consider `Cc1ccc(NC(=O)Nc2cccc(Cl)c2)c(C(=O)O)c1`, for which the figures for the EC50 in assay [2] and in assay [3] were 17.2 µM (active) and > 112 µM (not active), respectively.

`CC1CCN(C(=O)COC(=O)CCc2c[nH]c3ccccc23)CC1`: in “cells”, the IC50 was 2.53 µM (active).

Regarding `COc1cc(C(=O)N/N=C/c2ccc(OC(=O)c3ccccc3)c(OC)c2)ccc1O`, the IC50 in the assay with H9c2 is > 79 µM (inactive).

As for `CC1CCN(c2oc(-c3ccccc3F)nc2C#N)CC1`, the IC50 at Protein skinhead-1 was > 100 µM (inactive).

`CSCCC1NC(=O)N(CC(=O)Nc2ccc(Br)cc2Br)C1=O` (configuration not stated): the EC50 in assay [2] and in assay [3] was > 112 µM (not active) in each case.

Turning to `Cc1sc2nc(CSCC(=O)N(C)c3ccccc3)nc(O)c2c1C`, the IC50 in the assay on H9c2 is > 79 µM (inactive).

Take `O=S(=O)(NCCc1csc(-c2cccnc2)n1)c1ccc2c(c1)OCCO2`: the EC50 is > 120 µM (not active) in assay [7]; > 112 µM (not active) in assay [2]; > 120 µM (not active) in assay [8]; 16.4 µM (active) in [9]; > 112 µM (not active) in [3].

`CCc1nc2ccc(C(=O)NCc3cccs3)cn2c1N(C)Cc1nccs1`: the IC50 in the assay on H9c2 is 12.8 µM (active).

Regarding `CCOC(=O)C1(CC2CCCCO2)CCN(Cc2nccn2-c2ccc(OC)cc2)CC1` (configuration not stated), in assay [10], the EC50 is > 53 µM (inactive). The IC50 in assay [11] is > 47.1 µM (inactive).

For `CCC(=O)N1CCN(c2ccccc2NC(=O)c2ccc(-c3cccc([N+](=O)[O-])c3)o2)CC1`, the IC50 in the assay with H9c2 is > 79 µM (inactive).

In the case of `Cc1nc2ccccc2n1/C(=N/S(=O)(=O)c1ccc(Br)cc1)c1ccccc1`, the EC50 in assay [2] and in [3] was > 112 µM (not active) each time.

Take `Cc1ccc(NC(=O)c2cccs2)cc1NC(=O)c1ccco1`: the IC50 on Protein skinhead-1 was > 100 µM (inactive).

Take `CCCc1nc2sc3c(O)ncnc3c2c2c1CCCC2`: the EC50 in assay [2] and in assay [3] was > 112 µM (not active) each time.

On to `O=C1c2ccccc2C(=O)c2c1ccc(C(=O)N1CCCCC1)c2NCCO`, for which the IC50 on Protein skinhead-1 is > 100 µM (inactive).

As to `CO/N=C/CC(=O)c1ccc(OC)cc1`, in “cells”, the IC50 is 22.9 µM (active).

`CCc1ccc(NC(=O)c2cc(-c3ccco3)on2)cc1`: the IC50 at Protein skinhead-1 was > 100 µM (inactive).

Turning to `CC(C)(C)C(=O)Nc1ccc(C(=O)N/N=C/c2ccccc2OC(=O)c2ccccc2)cc1`, the IC50 with H9c2 is 31.5 µM (inactive).

As to `CCOC(=O)C1=C(NC(=O)c2ccc(S(=O)(=O)N(C)C)cc2)Nc2ccccc2N=C1CC`, the IC50 with H9c2 is > 79 µM (inactive).

Regarding `CC(C)(C)OC(=O)N1CCC(NC(=O)c2[nH]cnc2C(=O)NCC(=O)OCc2ccccc2)CC1`, the IC50 with H9c2 was 47 µM (inactive).

On to `Cc1onc(-c2c(Cl)cccc2Cl)c1C(=O)N1CCc2ccccc2C1`, for which the EC50 in assay [2] and in [3] was > 112 µM (not active) throughout. The AC50 on Cytochrome P450 2D6 was 22.4 µM (inconclusive).
